Results on 37 compounds are retold here after patent US20240317801A1, “PEPTIDOMIMETIC MATRIPTASE 2 INHIBITORS AND USES THEREOF” (Disc Medicine, Inc., priority 2020, published 2024).

The test deals with T1, Human Recombinant Matriptase 2 (Homo sapiens, UniProt Q8IU80).
T1 construct: purchased Enzo Life Sciences ALX-201-752-1
T1 sequence (Q8IU80 1-811): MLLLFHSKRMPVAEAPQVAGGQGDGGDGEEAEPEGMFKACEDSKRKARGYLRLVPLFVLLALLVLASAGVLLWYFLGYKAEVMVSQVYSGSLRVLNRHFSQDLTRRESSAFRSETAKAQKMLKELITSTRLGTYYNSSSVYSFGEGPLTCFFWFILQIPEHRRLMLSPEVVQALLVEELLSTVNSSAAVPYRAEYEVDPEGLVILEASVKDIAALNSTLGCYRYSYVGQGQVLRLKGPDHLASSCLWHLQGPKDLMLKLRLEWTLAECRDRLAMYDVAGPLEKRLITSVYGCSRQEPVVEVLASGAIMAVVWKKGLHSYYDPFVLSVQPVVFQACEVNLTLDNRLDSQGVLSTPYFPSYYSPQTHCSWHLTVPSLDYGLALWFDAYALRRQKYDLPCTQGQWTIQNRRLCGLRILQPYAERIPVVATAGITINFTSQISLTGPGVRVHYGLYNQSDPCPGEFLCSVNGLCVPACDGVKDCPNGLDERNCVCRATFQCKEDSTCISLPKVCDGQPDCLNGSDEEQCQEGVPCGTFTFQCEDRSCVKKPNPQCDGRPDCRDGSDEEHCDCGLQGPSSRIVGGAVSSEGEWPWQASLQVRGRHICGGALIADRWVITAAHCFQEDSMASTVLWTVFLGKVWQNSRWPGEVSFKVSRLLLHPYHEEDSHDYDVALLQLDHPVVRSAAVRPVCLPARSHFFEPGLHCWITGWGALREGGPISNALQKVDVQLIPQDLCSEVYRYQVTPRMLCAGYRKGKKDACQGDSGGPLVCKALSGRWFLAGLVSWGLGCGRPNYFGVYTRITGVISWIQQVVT
Put plainly: Matriptase 2 fluorescence-based inhibition assay (Boc-Gln-Ala-Arg-AMC substrate). Format: biochemical. Conditions: Ki derived from measured IC50 using Cheng-Prusoff equation; 30 min preincubation, 100 μM substrate, 25° C., pH 7.5; read-out: Mat-2 Ki. As to the method: Test compounds were evaluated for their potential to inhibit Human Recombinant Matriptase 2 (in-house and commercial protein from Enzo Life Sciences—cat log—ALX-201-752-1) using fluorescence-based assay. The concentration of Recombinant Matriptase 2 and the substrate used in the assay were: 7 nM (commercial) and 15 nM (In-house Matriptase 2) and 100 μM (Boc-Gln-Ala-Arg-7-amido-4-methyl coumarin hydrobromide—Cat log: B4153-Sigma and I-1550 from Bachem) respectively. The assay buffer used comprised 50 mM TRIS pH 7.5, 150 mM NaCl, 0.01% gelatin (G1393 Sigma). The assay was performed by using 384 well black flat bottom plate from Grenier (Cat log: 781076) at 25° C. The enzyme and the test compound were preincubated for 30 mins, and the plate was read at wavelength Ex: 360/Em:480 nm60 mins after substrate addition. The final assay volume of was 20 μl. Stock solution of compounds were initially prepared in DMSO, which were appropriately diluted for screening to determine IC50 determination (final DMSO conc in the assay was 1%). All the measurements were carried out using the Spectramax M5, Molecular devices. The test compounds were screened at 1 and 10 μM concentrations and IC50 was determined for the interested compounds.
Ki is the binding affinity of an inhibitor. Mat-2 Ki as described herein is the binding affinity of an inhibitor such as a compound as described and provided herein to Mat-2. Mat-2 Ki values are derived from the measured IC50. To determine IC50 values, dose-response curves were generated by plotting percentage inhibition as a function of inhibitor concentration and the data was fitted to a sigmoidal non-linear regression equation (variable slope) using Graph Pad Prism software V7. Mat-2 Ki values as described herein were derived from the IC50 using the Cheng-Prusoff equation, which is understood and appreciated by one the skill in the art. The Mat-2 Ki values of tested compounds as described herein are shown in Table A. Accordingly, the compounds can be used to inhibit matriptase 2 and treat diseases and conditions associated with matriptase 2, such as those described herein.

SMILES strings stand for the structures. Some results are limits rather than exact numbers.

Take `C[C@@H](O)[C@H](NC(=O)[C@H](CCc1ccccc1)NC(=O)CCc1ccccc1)C(=O)N[C@@H](CC1CCN(C(=N)N)CC1)C(=O)C(=O)NC1CC1` [(3S)-4-(1-carbamimidoylpiperidin-4-yl)-N-cyclopropyl-2-oxidanylidene-3-[[(2S,3R)-3-oxidanyl-2-[[(2S)-4-phenyl-2-(3-phenylpropanoylamino)butanoyl]amino]butanoyl]amino]butanamide]: the Ki (as a rule, a dissociation constant, usually derived from enzyme kinetics or from competition with a known ligand) was 100 to 1000 nM. The result for `CO[C@@H](C)C(NC(=O)[C@H](Cc1cscn1)NC(=O)OCc1ccccc1)C(=O)NC(CCCNC(=N)N)C(=O)C(=O)NC(C)(C)C` (stereo partly shown) reads ≤ 100 nM; that for `N=C(N)NCCC[C@H](NC(=O)C1(NC(=O)[C@H](CCc2ccccc2)NC(=O)CCc2ccccc2)CCC1)C(=O)C(=O)NC1CC1`, ≤ 100 nM.

`C[C@H](O)[C@H](NC(=O)[C@H](Cc1cscn1)NC(=O)OCc1ccccc1)C(=O)N[C@@H](CCCNC(=N)N)C(=O)C(=O)NC(C)(C)C`: the Ki is ≤ 100 nM.

Regarding `C[C@@H](O)[C@H](NC(=O)[C@H](Cc1ccc(F)cc1)NC(=O)OCc1ccccc1)C(=O)NC(CCCNC(=N)N)C(=O)C(=O)NC(C)(C)C` (stereo partly shown), the inhibition constant (Ki) was ≤ 100 nM. Under `CNC(=O)C(=O)[C@H](CCCNC(=N)N)NC(=O)[C@@H](NC(=O)[C@H](CCc1ccccc1)NC(=O)OCc1ccccc1)[C@@H](C)O` stands ≤ 100 nM. Under `CC(C)[C@H](NC(=O)[C@H](Cc1cscn1)NC(=O)OCc1ccccc1)C(=O)N[C@@H](CCCNC(=N)N)C(=O)C(=O)NC(C)(C)C` stands ≤ 100 nM; under `CO[C@H](C)[C@H](NC(=O)[C@H](Cc1cscn1)NC(=O)OC(C)C)C(=O)NC(CCCNC(=N)N)C(=O)C(=O)NC(C)(C)C` (stereo partly shown), ≤ 100 nM.

As for `CC(C)[C@H](NC(=O)[C@H](Cc1cscn1)NC(=O)CCc1ccccc1)C(=O)N[C@@H](CCCNC(=N)N)C(=O)C(=O)NC1CC1`, the Ki was ≤ 100 nM. In the case of `CC(C)[C@H](NC(=O)[C@H](Cc1cscn1)NC(=O)CCc1ccccc1)C(=O)N[C@@H](CCCNC(=N)N)C(=O)C(=O)NC(C)(C)C`, the Ki was ≤ 100 nM. For the compound `CCNC(=O)C(=O)C(Cc1cccc(Cl)c1)NC(=O)[C@@H](NC(=O)[C@H](CCc1ccccc1)NC(=O)CCc1ccccc1)[C@@H](C)O` (stereo partly shown), the Ki is ≥ 1000 nM. Under `C[C@@H](O)[C@H](NC(=O)C(CCc1ccccc1)NC(=O)CCc1ccccc1)C(=O)NC(Cc1cccc(CN)c1)C(=O)C(=O)NC1CC1` (stereo partly shown) stands 100 to 1000 nM; under `C[C@@H](O)[C@H](NC(=O)[C@H](CCc1ccccc1)NC(=O)CCc1ccccc1)C(=O)NC(CCc1nc(N)no1)C(=O)C(=O)NC(C)(C)C` (stereo partly shown), ≥ 1000 nM. For `CO[C@H](C)[C@H](NC(=O)[C@H](CCc1ccccc1)NC(=O)CCc1ccccc1)C(=O)N[C@@H](CCCNC(=N)N)C(=O)C(=O)NC1CC1`, the Ki was ≤ 100 nM. As for `CCOC(=O)CNC(=O)C(=O)C(CCCNC(=N)N)NC(=O)[C@@H](NC(=O)C(CCc1ccccc1)NC(=O)CCc1ccccc1)[C@@H](C)O` (stereo partly shown), the Ki was in the range of 100 to 1000 nM. Turning to `C[C@@H](O)[C@H](NC(=O)[C@H](Cc1cscn1)NC(=O)OCc1ccccc1)C(=O)N[C@@H](CCCNC(=N)N)C(=O)C(=O)NC(C)(C)C`, the Ki was ≤ 100 nM. Under `C[C@@H](O)[C@H](NC(=O)C(CCc1ccccc1)NC(=O)CCc1ccccc1)C(=O)NC(Cc1ccc(N)nc1)C(=O)C(=O)NC1CC1` (stereo partly shown) stands ≥ 1000 nM; under `C[C@H](O)[C@H](NC(=O)[C@H](CCc1ccccc1)NC(=O)CCc1ccccc1)C(=O)NC(CCCNC(=N)N)C(=O)C(=O)NC(C)(C)C` (stereo partly shown), ≤ 100 nM. The result for `C[C@@H](O)[C@H](NC(=O)[C@H](CCc1ccccc1)NC(=O)CCc1ccccc1)C(=O)N[C@@H](CCCNC(=N)N)C(=O)C(=O)NC1(c2cccnc2)CC1` reads ≤ 100 nM; that for `C[C@H](O)[C@H](NC(=O)[C@H](CCc1ccccc1)NC(=O)CCc1ccccc1)C(=O)N[C@@H](CCCNC(=N)N)C(=O)C(=O)N[C@@H]1C[C@@H]1F`, ≤ 100 nM; that for `C[C@@H](O)[C@H](NC(=O)C(CCc1ccccc1)NC(=O)OCc1ccccc1)C(=O)NC(CCCS(C)(=N)=O)C(=O)C(=O)NC(C)(C)C` (stereo partly shown), ≥ 1000 nM. The result for `CO[C@@H](C)[C@H](NC(=O)C(CCc1ccccc1)NC(=O)OCc1ccccc1)C(=O)NC(CCCNC(=N)N)C(=O)C(=O)NC(C)(C)C` (stereo partly shown) reads ≤ 100 nM; that for `N=C(N)NCCC[C@H](NC(=O)[C@@H]1C[C@@H](O)CN1C(=O)[C@H](CCc1ccccc1)NC(=O)CCc1ccccc1)C(=O)C(=O)NC1CC1` [(2S,4R)—N—((S)-1-(cyclopropylamino)-6-guanidino-1,2-dioxohexan-3-yl)-4-hydroxy-1-((S)-4-phenyl-2-(3-phenylpropanamido)butanoyl)pyrrolidine-2-carboxamide], ≤ 100 nM. As to `C[C@H](O)[C@H](NC(=O)[C@H](CCc1ccccc1)NC(=O)OCc1ccccc1)C(=O)N[C@@H](CCCNC(=N)N)C(=O)C(=O)NC(C)(C)C`, the Ki was ≤ 100 nM. Under `C[C@@H](O)[C@H](NC(=O)[C@H](CCc1ccccc1)NC(=O)CCc1ccccc1)C(=O)N[C@@H](CCCNC(=N)N)C(=O)C(N)=O` stands ≤ 100 nM. Consider `CO[C@@H]1CC(C(=O)N[C@@H](CCCNC(=N)N)C(=O)C(=O)NC(C)(C)C)N(C(=O)[C@H](Cc2cscn2)NC(=O)OCc2ccccc2)C1` (stereo partly shown), for which the Ki was ≤ 100 nM. The result for `C[C@@H](O)[C@H](NC(=O)[C@H](Cc1cscn1)NC(=O)CCc1ccccc1)C(=O)N[C@@H](CCCNC(=N)N)C(=O)C(=O)NC1CC1` reads ≤ 100 nM; that for `C[C@@H](O)[C@H](NC(=O)C(CCc1ccccc1)NC(=O)OCc1ccccc1)C(=O)NC(CCc1ccc(N)nc1)C(=O)C(=O)NC(C)(C)C` (stereo partly shown), 100 to 1000 nM; that for `C[C@@H](O)[C@H](NC(=O)[C@H](CCc1ccccc1)NC(=O)CCc1ccccc1)C(=O)N[C@@H](CCCNC(=N)N)C(=O)C(=O)N(C)C`, ≥ 1000 nM. The result for `C[C@H](O)[C@H](NC(=O)[C@H](CCc1ccccc1)NC(=O)CCc1ccccc1)C(=O)NC(CCCNC(=N)N)C(=O)C(=O)NC1CC1` (stereo partly shown) reads ≤ 100 nM; that for `C[C@@H](O)[C@H](NC(=O)[C@H](Cc1cccnc1)NC(=O)OCc1ccccc1)C(=O)NC(CCCNC(=N)N)C(=O)C(=O)NC(C)(C)C` (stereo partly shown), ≤ 100 nM. Under `C[C@@H](O)[C@H](NC(=O)[C@H](Cc1cscn1)NC(=O)CCc1ccccc1)C(=O)N[C@@H](CCCNC(=N)N)C(=O)C(=O)NC(C)(C)C` stands ≤ 100 nM; under `N=C(N)NCCC[C@H](NC(=O)[C@@H]1C[C@@H](OCc2ccccc2)CN1C(=O)[C@H](CCc1ccccc1)NC(=O)CCc1ccccc1)C(=O)C(=O)NC1CC1` [(2S,4R)-4-(benzyloxy)-N—((S)-1-(cyclopropylamino)-6-guanidino-1,2-dioxohexan-3-yl)-1-((S)-4-phenyl-2-(3-phenylpropanamido)butanoyl)pyrrolidine-2-carboxamide], ≤ 100 nM; under `CNC(=O)C(O)C(CCCNC(=N)N)NC(=O)[C@@H](NC(=O)[C@H](CCc1ccccc1)NC(=O)CCc1ccccc1)[C@@H](C)O` (stereo partly shown), ≥ 1000 nM.

`CC(C)(C)NC(=O)C(=O)[C@H](CCCNC(=N)N)NC(=O)C1C[C@@H](O)CN1C(=O)[C@H](Cc1cscn1)NC(=O)OCc1ccccc1` (stereo partly shown): the Ki was ≤ 100 nM. The result for `C[C@@H](O)[C@H](NC(=O)[C@H](CCc1ccccc1)NC(=O)CCc1ccccc1)C(=O)N[C@@H](CCCNC(=N)N)C(=O)C(=O)NC1(C)CC1` [(S)-6-guanidino-3-((2S,3R)-3-hydroxy-2-((S)-4-phenyl-2-(3-phenylpropanamido)butanamido)butanamido)-N-(1-methylcyclopropyl)-2-oxohexanamide] reads ≤ 100 nM; that for `CNC(=O)C(=O)[C@H](CCCNC(=N)N)NC(=O)[C@@H](NC(=O)[C@H](CCc1ccccc1)NC(=O)CCc1ccccc1)[C@@H](C)O`, ≤ 100 nM.
